Patent US20150284344A1, “Substituted [1,2,4]triazole Compounds” (BASF SE, priority 2012, published 2015)

Legend:
Assay type in all cases: cell-based
[1] = test system: Pyricularia oryzae; details: comparison test C2, control = 100%
[2] = test system: Septoria tritici; test: Microtiterplate test against leaf blotch on wheat caused by Septoria tritici (Septtr), M3 / C4; details: comparison test C4, control = 100%
[3] = test system: Botrytis cinerea; test: Microtiterplate test against grey mold Botrytis cinerea (Botrci), M1 / C1; details: comparison test C1, control = 100%
[4] = test system: Leptosphaeria nodorum; test: Microtiterplate test against wheat leaf spots caused by Leptosphaeria nodorum (Leptno), C3; details: comparison test C3, control = 100%

SMILES	Growth (%) at 31 ppm Pyrior [1]	Growth (%) at 2 ppm Septtr [2]	Growth (%) at 31 ppm Botrci [3]	Growth (%) at 2 ppm Leptno [4]
Cc1cc(Oc2ccc(Cl)cc2)ccc1C(O)(CF)Cn1cncn1 (stereo not drawn) [EP 113 640 A2, compound 53, Table I, reference compound]	47%	40%	63%	65%
Cc1cc(Oc2ccc(Cl)cc2)ccc1C(O)(Cn1cncn1)C(F)(F)F (stereo not drawn) [Compound I-5, 2-[4-(4-chlorophenoxy)-2-methyl-phenyl]-1,1,1-trifluoro-3-(1,2,4-triazol-1-yl)propan-2-ol]	0%	2%	0%	1%
Cc1cc(Oc2ccc(Cl)cc2)ccc1C(C)(O)Cn1cncn1 (stereo not drawn) [Compound I-4, 2-[4-(4-chlorophenoxy)-2-methyl-phenyl]-1-(1,2,4-triazol-1-yl)propan-2-ol]	0%	0%	0%	0%
